The values below come from US8334316B2, “Substituted organosulfur compounds and methods of using thereof” (ACEA Biosciences, Inc., priority 2004, dated 2012).

“Also recorded” adds a separate entry of the source.

Holding throughout (assay type): cell-based
Experiment [1] concerns H460 (human non small cell lung cancer cell line). The experiment in a line: MTT assay IC50 (48 h), H460. As to conditions: NCI-H460, H460, 48 hours. As to the method:
In another assay format, a test compound is assayed for its cytotoxicity and/or cytostatic effect on certain cancer cell types, using endpoint assay methods. Cells in the NCI cancer cell panel may be used. Cells after a pre-incubation for certain length of time (for example, 8 hrs or 24 hrs) are incubated with a test compound at serially-diluted concentrations (for example, five 10-fold dilutions) for 24 hrs and/or 48 hrs, and/or other specific length of time. The dose dependent cytotoxicity and/or cytostatic effects of test compounds can then be tested and evaluated using the 3-(4,5-dimethylthiazol-2-yl)-2,5-diphenyltetrazolium bromide (MTT) assay method, as described by, for example, Boyd (In Principle of Practice of Oncology, Devita, J. T., Hellman, S. and Rosenberg S. A. (Eds), 1989, Vol, 3, PPO Update, No. 10).
The anticancer potency of DBTS and its derivatives were tested in 8 different types of human cancer cell lines using the RT-CES system and MTT assay. The 8 cancer cell lines were HT1080 (the human fibrosarcoma cell line), H460 (human non small cell lung cancer cell line), OVCAR4 (the human ovarian cancer cell line), MCF7 (human breast cancer cell line) MDA-MB231 (M231, the human breast cancer cell line) A2780 (the human […] cancer cell line) Jurkat (the human T cell leukemia cell line). The test DBTS derivatives include ACEA100107, ACEA100108, ACEA100109, ACEA100111, ACEA100115, ACEA100116, ACEA100117, ACEA100118, ACEA100119, and ACEA100120.
For the MTT assay, the cells were seeded into the regular 96× well plates at the cell seeding density ranging from 5000 cells/well to 15,000 cells/well. The cells were incubated at 5% CO2 and 37° C. for overnight. The derivatives were serially diluted and added to the cells. The treatment was terminated after 48 hours of incubation by adding MTT staining reagent. After 4 hours, the staining was stopped by the stop buffer and then the calorimetric measurement was carried out on a microtiter plate reader at dual wave length, 650 nm and 550 nm.

For experiment [2], the system named is HT1080 (human fibrosarcoma cell line). The experiment in a line: RT-CES system cell proliferation/cytotoxicity IC50, HT1080. The following applies: HT-1080, time point of maximum inhibition. The source says: (§1) The RT-CES system comprises three components, an electronic sensor analyzer, a device station and 16× or 96× microtiter plate devices. Microelectrode sensor array was fabricated on glass slides with lithographical microfabrication methods and the electrode-containing slides are assembled to plastic trays to form electrode-containing wells. Each 16× (or 96×) microtiter plate device used in RT-CES system comprises up to 16 (or 96) such electrode-containing wells. The device station receives the 16× or 96× microtiter plate devices and is capable of electronically switching any one of the wells to the sensor analyzer for impedance measurement. In operation, the devices with cells cultured in the wells are placed into a device station that is located inside an incubator. Electrical cables connect the device station to the sensor analyzer. Under the RT-CES software control, the sensor analyzer can automatically select wells to be measured and continuously conduct impedance measurements. The impedance data from the analyzer is transferred to a computer, analyzed and processed by the integrated software.
(§2) To quantify cell status based on the measured cell-electrode impedance, a parameter termed Cell Index is derived, according to
(§3) [formula] where Rb(f) and Rcell(f) are the frequency dependent electrode resistances (a component of impedance) without cells or with cell present, respectively. N is the number of the frequency points at which the impedance is measured. Thus, Cell Index is a quantitative measure of the status of the cells in an electrode-containing well. Under the same physiological conditions, more cells attached on to the electrodes leads to larger Rcell(f) value, leading to a larger value for Cell Index. Furthermore, for the same number of cells present in the well, a change in the cell status such as morphology will lead to a change in the Cell Index. For example, an increase in cell adhesion or cell spreading leads to larger cell-electrode contact area which will lead to an increase in Rcell(f) and thus a larger value for Cell Index. The Cell Index may also be calculated using a formula different from the one described here. Other methods for calculating the Cell Index based on impedance measurement can be found in PCT application number PCT/US04/37696, fined on Nov. 12, 2004, PCT application number PCT/US05/04481, filed on Feb. 9, 2005, U.S. patent application Ser. No. 10/987,732, filed on Nov. 12, 2004, and U.S. patent application Ser. No. 11/055,639, filed on Feb. 9, 2005.
HT1080 cells (human fibrosarcoma cells) were seeded into wells of 16× or 96× microtiter plate devices (electronic plates, i.e., the plates comprise microelectrode sensor arrays in the wells of the plate) with an initial seeding density of 4,000 cells per well and were pre-incubated in incubator under standard cell culture conditions for about 18.6 hrs. Dibenzyl trisulfide solution in DMSO was added into wells following the incubation period. The cell status was monitored prior to and after the compound addition using RT-CES system. The cell indexes of different wells were between 0.72 and 1.45 just before the compound addition. […] The cell index was normalized against the cell index values at a time point just after compound addition (about 20 hrs after cell seeding).
For the assay performed on the RT-CES system, the cells were seeded into the 16× or 96× microtiter plate devices (electronic plates, i.e., the plates comprise microelectrode sensor arrays in the wells of the plate) at the seeding density ranging from 5000 cells/well to 15,000 cells/well. The cells were incubated at 5% CO2 and 37° C. for overnight till the cell indices reached the growth phase where the cell index was between 0.8 and 1.2. Serially diluted compounds were then added to the cells followed by dynamic monitoring of the effect of the compounds on the cell proliferation and cytotoxicity. […]

The test system of experiment [3] is HepG2 cells (human hepatosarcoma). The experiment is described as follows: RT-CES system cell proliferation/cytotoxicity, HepG2. As to conditions: for IC50: Homo sapiens, HepG2, time point of maximum inhibition.
Description: as §1, §2, §3
Different types of human cancer cells, including NCI-H460 (non-small cell lung cancer cells), MV522 SW (non-small cell lung cancer cells), MCF7 (breast cancer cells), A549 (non-small cell lung cancer cells), PC3 (prostate cancer cells), A431 (epidermoid cancer cells), HT1080 (fibrosarcoma cells), MDA.MB2321 (breast cancer cells), HT29 (colon cancer cells), HCC2998 (colon cancer cells), OVCAR4 (ovarian cancer cells), A2780 (ovarian cancer cells) and HepG2 (human hepatosarcoma) with different numbers (4000 to 20,000 per well) were seeded into 16× or 96× microtiter device and monitored by RT-CES™ system. The cells were allowed to grow for about 24 hours prior to the addition of dibenzyl trisulfide dissolved in DMSO solution (final DMSO concentration: 0.2%; final dibenzyl trisulfide concentration: between 1.5625 μM and 100 μM). The cell-electrode impedance was continuously measured and the corresponding, time dependent cell-index values were derived and recorded.
HepG2 cells (human hepatosarcoma cells) were seeded into wells of 16× or 96× microtiter plate devices (electronic plates, i.e., the plates comprise microelectrode sensor arrays in the wells of the plate) with an initial seeding density of 15,000 cells per well and were pre-incubated in incubator under standard cell culture conditions for about 22 hrs. Dibenzyl trisulfide solution in DMSO was added into wells following the incubation period. […]

Turning to `Fc1ccc(CSSSCc2ccc(F)cc2)cc1` [ACEA100108, Di(p-fluorobenzyl)trisulfide], the concentration for half-maximal inhibition (IC50) in experiment [1] is 10.2 µM; in experiment [2], 1.3 µM; in experiment [3], greater than 50 µM.
Turning to `Clc1ccccc1CSSSCc1ccccc1Cl` [ACEA100115, Di(o-chlorobenzyl)trisulfide], the IC50 is 11.8 µM in experiment [1], 2.2 µM in experiment [2] and greater than 50 µM in experiment [3].
For the compound `Cc1cccc(CSSSCc2cccc(C)c2)c1` [ACEA100116, di(m-methylbenzyl)trisulfide], the results for the IC50 in experiment [1], in experiment [2] and in experiment [3] were 5.4 µM, 1.9 µM and greater than 50 µM, respectively.
The like results for `FC(F)(F)c1cccc(CSSSCc2cccc(C(F)(F)F)c2)c1` [ACEA100117, Di(m-trifluoromethylbenzyl)trisulfide] were, in that order, greater than 50 µM, 27.5 µM and greater than 50 µM.
For the compound `Clc1ccc(CSSSCc2ccc(Cl)cc2)cc1` [ACEA100118, Di(p-chlorobenzyl)trisulfide], the IC50 was 7.95 µM in experiment [1], 1.2 µM in experiment [2] and greater than 50 µM in experiment [3].
Regarding `c1ccc(CSSSCc2ccccc2)cc1` [DBTS, Dibenzyl trisulfide], the figures for the IC50 in experiment [1], in experiment [2] and in experiment [3] were 14.2 µM, 2.2 µM and greater than 50 µM, respectively. Also, the “Effect on HepG2 cell proliferation (cell index)” value in experiment [3] (within the exposing dose range (1.5625-100 μM)) was “did not demonstrate anti-proliferation ability; also recorded: exhibits no inhibition effect on HepG2 cell proliferation and no cytotoxic effect”.
